According to patent US20060241123A1, “Substituted piperidine and piperazine derivatives as melanocortin-4 receptor modulators” (priority 2003, published 2006):
Where two headings read alike, the source gives them in different places.

Tests used:
hMC4-R [1] = target: T1, hMC4-R (Homo sapiens, UniProt P32245); assay: Functional cellular cAMP assay, fluorescence polarization, HEK293 cells; type: cell-based; settings: for % activation functional assay: compared to stimulation with NDP-alpha-MSH; for EC50: cAMP production
T1 construct: expressed in transfected cells; host or cells: HEK293 cells
Procedure: A functional cellular assay, based on competition between unlabeled CAMP and a fixed quantity of fluorescence labeled cAMP for a limited number of binding sites on a cAMP specific antibody, is used to discriminate melanocortin receptor agonists from antagonists by fluorescence polarization.
HEK293 cells expressing one of the human melanocortin receptors are transferred to 384 well microtiter plates, an appropriate amount of cAMP antibody is added, followed by the addition of different concentrations of the test compound to effect cAMP production. Cells are lysed and a fluorescence labeled cAMP conjugate is dispensed. The plate is read on a fluorescence polarization microplate reader and the amount of cAMP produced as a response to a test compound is compared to the production of cAMP resulting from stimulation with NDP-alpha-MSH. […]

hMC4-R [2] = target: T1, hMC4-R; assay: Membrane binding assay, fluorescence polarization, fluorescence labeled NDP-alpha-MSH; settings: HEK293 cell membrane preparations
Procedure: A membrane binding assay is used to identify competitive inhibitors of fluorescence labeled NDP-alpha-MSH binding to HEK293 cell membrane preparations expressing human melanocortin receptors.
The test compound or unlabeled NDP-alpha-MSH is dispensed at varying concentrations to a 384 well microtiter plate. Fluorescence labeled NDP-alpha-MSH is dispensed at a single concentration, followed by addition of membrane preparations. The plate is incubated for 5 h at room temperature.
The degree of fluorescence polarization is determined with a fluorescence polarization microplate reader.

male Wistar rats [3] = assay: Spontaneous feeding paradigm, food intake in rats; type: in vivo, rat; settings: for increase in cumulative food intake: compared to vehicle
Procedure: Food intake in rats is measured after i.p. or p.o. administration of the test compound (see e.g. Chen, A. S. et al. Transgenic Res 2000 April; 9(2):145-54).
Selected Examples of the present invention were active in the rat model at 3, 10 or 30 mg/kg after i.p. and p.o. administration of the test compound, respectively, using male Wistar rats (n=4−6).

male Wistar rats [4] = assay: Lipopolysaccharide-induced cachexia in rats (acute model); type: in vivo, rat
Procedure: Prevention or amelioration of cachexia induced by either lipopolysaccharide (LPS) administration or by tumor growth is determined upon i.p. or p.o. administration of test compounds to rats (see e.g. Marks, D. L.; Ling, N and Cone, R. D. Cancer Res 2001 Feb. 15; 61 (4): 1432-8).
1-2 Hours prior to the onset of the dark-phase, individually housed, male Wistar rats (200-300 g) receive an ip or po application of test-compound or vehicle (2 ml/kg, 1-30 mg/kg) which is followed or preceded by an ip injection of either lipopolysaccharide (LPS) or saline (2 ml/kg, 100 μg/kg). Food intake, water intake and body weight are measured at 1-24 hour intervals and differences between experimental groups are evaluated.

[5] = J. Med. Chem. 2002, 45, 4589-4593; cited from earlier work
rat = settings: i.v. or p.o.; WO0074679; cited from earlier work
melanocortin-4 receptor [6] = target: T2, melanocortin-4 receptor (Homo sapiens, UniProt P32245); settings: cited from earlier work; for % stimulation: Bioorg. Med. Chem. Lett. 2003, 13, 3793-3796
melanocortin-4 receptor [7] = target: T2, melanocortin-4 receptor; settings: cited from earlier work
[8] = 3 mg/kg p.o., 4 hours following administration
[9] = 3 mg/kg p.o., 6 hours following administration
[10] = 3 mg/kg p.o., 7 hours following administration
[11] = read-out: EC50 activation of melanocortin-4 receptor, our assay system

T1 sequence (P32245 whole entry): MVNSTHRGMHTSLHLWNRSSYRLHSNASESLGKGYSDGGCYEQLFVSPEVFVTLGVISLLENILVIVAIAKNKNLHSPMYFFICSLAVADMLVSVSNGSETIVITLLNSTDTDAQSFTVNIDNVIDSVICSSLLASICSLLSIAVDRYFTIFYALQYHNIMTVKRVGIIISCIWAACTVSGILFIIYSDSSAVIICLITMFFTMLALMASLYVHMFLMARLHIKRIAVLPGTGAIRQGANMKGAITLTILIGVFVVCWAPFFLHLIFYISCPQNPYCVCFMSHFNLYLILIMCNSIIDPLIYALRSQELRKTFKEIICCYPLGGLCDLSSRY
T2 sequence (P32245 whole entry): as above

CS(=O)(=O)N1CC2(CCN(C(=O)[C@@H](Cc3ccc(Cl)cc3)NC(=O)c3cc(=O)c4ccccc4o3)CC2)c2ccccc21 [Example 1]
activation of the melanocortin-4 receptor in the functional assay (hMC4-R [1]): does not activate
% activation functional assay (hMC4-R [1]): no activation
IC50 (hMC4-R [2]): 80 nM

CS(=O)(=O)Nc1ccccc1N1CCN(C(=O)[C@@H](Cc2ccc(Cl)cc2)NC(=O)c2cc(=O)c3ccccc3o2)CC1 [Example 8]
activation of the melanocortin-4 receptor in the functional assay (hMC4-R [1]): does not activate
% activation functional assay (hMC4-R [1]): no activation
IC50 (hMC4-R [2]): 300 nM

O=C(N[C@H](Cc1ccc(Cl)cc1)C(=O)N1CCC(Cn2cncn2)(C2CCCCC2)CC1)c1cc(=O)c2ccccc2o1 [Example 15]
EC50 (hMC4-R [1]; read-out: hMC4-R functional assay EC50/nM): 700 nM
% activation functional assay (hMC4-R [1]): 40%
IC50 (hMC4-R [2]): 4.4 nM
food intake in spontaneous feeding paradigm (male Wistar rats [3]; 3 mg/kg p.o.): significantly increase in food intake
increase in cumulative food intake (male Wistar rats [3]; [8]): 290%
increase in cumulative food intake (male Wistar rats [3]; [9]): 186%
increase in cumulative food intake (male Wistar rats [3]; [10]): 355%

CC(C)(C)NC(=O)C1(C2CCCCC2)CCN(C(=O)[C@@H](Cc2ccc(Cl)cc2)NC(=O)c2cc(=O)c3ccccc3o2)CC1 [Example 66]
activation of the melanocortin-4 receptor in the functional assay (hMC4-R [1]): no activation
% activation functional assay (hMC4-R [1]): no activation
IC50 (hMC4-R [2]): 6.8 nM
cumulative food intake in LPS-induced cachexia (male Wistar rats [4]; 10 mg/kg p.o.): significant increase in cumulative food intake
increase in cumulative food intake (male Wistar rats [4]; 10 mg/kg p.o. in combination with LPS, 4 hours following administration, compared to LPS and vehicle): 148%
food intake in spontaneous feeding paradigm (male Wistar rats [3]; 3 mg/kg p.o.): significant increase in food intake
increase in cumulative food intake (male Wistar rats [3]; 3 mg/kg p.o., 2 hours following administration): 410%
increase in cumulative food intake (male Wistar rats [3]; [8]): 500%
increase in cumulative food intake (male Wistar rats [3]; [9]): 186%
increase in cumulative food intake (male Wistar rats [3]; [10]): 272%

CS(=O)(=O)NCc1ccccc1N1CCN(C(=O)[C@@H](Cc2ccc(Cl)cc2)NC(=O)c2cc(=O)c3ccccc3o2)CC1 [Example 110]
activation of the melanocortin-4 receptor in the functional assay (hMC4-R [1]): does not activate
% activation functional assay (hMC4-R [1]): no activation
IC50 (hMC4-R [2]): 790 nM

O=C(N[C@H](Cc1ccc(Cl)cc1)C(=O)N1CCN(c2ccccc2C(=O)N2CCCCC2)CC1)c1cc(=O)c2ccccc2o1 [Example 113]
increase in cumulative food intake (male Wistar rats [3]; 30 mg/kg p.o., 2 hours following administration): 192%
increase in cumulative food intake (male Wistar rats [3]; 30 mg/kg p.o., 4 hours following administration): 159%
increase in cumulative food intake (male Wistar rats [3]; 30 mg/kg p.o., 6 hours following administration): 191%
increase in cumulative food intake (male Wistar rats [3]; 30 mg/kg p.o., 7 hours following administration): 200%

CS(=O)(=O)N1CC2(CCN(C(=O)C[C@@H](Cc3ccc(Cl)cc3)NC(=O)[C@H]3Cc4ccccc4CN3)CC2)c2ccccc21.Cl [Example 212]
increase in cumulative food intake (male Wistar rats [3]; 10 mg/kg i.p., 2 hours following administration): 708%
increase in cumulative food intake (male Wistar rats [3]; 10 mg/kg i.p., 4 hours following administration): 725%
increase in cumulative food intake (male Wistar rats [3]; 10 mg/kg i.p., 6 hours following administration): 224%
increase in cumulative food intake (male Wistar rats [3]; 10 mg/kg i.p., 8 hours following administration): 167%

O=C(NC(Cc1ccc(Cl)cc1)C(=O)N1CCC(Cn2cncn2)(C2CCCCC2)CC1)C1Cc2ccccc2CN1 (stereo not drawn) [WO0074679, example 2]
food intake [5]: significantly reduced
in vivo activity in reflexogenic erections model (rat): in vivo agonist
% activation functional assay (hMC4-R [1]): 102%
melanocortin-4 receptor activation (melanocortin-4 receptor [6]; at 10 μM, J. Med. Chem. 2002, 45, 4589-4593): activate the melanocortin-4 receptor

CS(=O)(=O)NCc1ccccc1N1CCN(C(=O)C(Cc2ccc(Cl)cc2)NC(=O)C2Cc3ccccc3CN2)CC1 (stereo not drawn) [WO02059108, example 56]
Ki (melanocortin-4 receptor [7]; J. Med. Chem. 2004, 47, 744-755): 210 nM
EC50 (melanocortin-4 receptor [6]; J. Med. Chem. 2004, 47, 744-755, read-out: EC50 activation of melanocortin-4 receptor): 48 nM

CS(=O)(=O)Nc1ccccc1N1CCN(C(=O)[C@@H](Cc2ccc(Cl)cc2)NC(=O)[C@H]2Cc3ccccc3CN2)CC1 [WO03009850, example 1, reference compound]
EC50 (hMC4-R [1]; [11]): 3700 nM
% activation functional assay (hMC4-R [1]): 96%
% stimulation (melanocortin-4 receptor [6]): 100%

CS(=O)(=O)N1CC2(CCN(C(=O)[C@@H](Cc3ccc(Cl)cc3)NC(=O)[C@H]3Cc4ccccc4CN3)CC2)c2ccccc21 [WO9964002, example 13, reference compound]
Ki (melanocortin-4 receptor [7]; Current Topics Med. Chem. 2003, 3, 855-883): 10 nM
EC50 (hMC4-R [1]; [11]): 1100 nM
% activation functional assay (hMC4-R [1]): 110%
IC50 (hMC4-R [2]): 54 nM
% stimulation (melanocortin-4 receptor [6]): 100%
